The source of these data is article PMC4063695, “Design of Embedded-Hybrid Antimicrobial Peptides with Enhanced Cell Selectivity and Anti-Biofilm Activity” (PLoS ONE, 2014).

No end group written: not given here.

Data set [1] relates to human red blood cells (hRBC). In words: Hemolytic activity. The class given is cell-based. Conditions: minimum concentration that caused 5% hemolysis of hRBC (footnote); 1% hRBC in PBS pH 7.4, 1 h, 37°C, OD 492 nm. The method, then: The amount of released hemoglobin by the lysis of erythrocytes was measured for hemolytic activity of peptides. Human erythrocytes were obtained from a healthy donor with written informed consent. The experimental protocol was reviewed and approved by the ethics committee of the Northeast Agricultural University Hospital. The measurement was based on a previously described method. The fresh hRBCs were washed three times by centrifugation (1000 g, 5 min, 4°C) in PBS (pH 7.4), and then resuspended in PBS to obtain the erythrocyte with a dilution of approximately 1% (v/v). Then, 50 µL of hRBCs solution was incubated with 50 µL of different concentrations of the peptides dissolved in PBS for 1 h at 37°C, before centrifugation (1000 g, 5 min, 4°C) again. The absorbance of the supernatants was measured at optical density (OD) 492 nm. […] The control samples for 0% and 100% hemolysis consisted of hRBCs in PBS (Ablank) only and in 0.1% Triton X-100 (Atriton), respectively. The percentage of hemolysis was calculated according to the following equation: [drawing 3]

In data set [2] the test system is P. aeruginosa variant 2. Conditions: P. aeruginosa variant 2, obtained by step-wise culture with gentamicin; MHB, 37°C, 18-24 h. From the text:
(§1) E. coli ATCC25922, P. aeruginosa ATCC27853, S. aureus ATCC29213, S. epidermidis ATCC12228, S. faecalis ATCC29212 and B. subtilis CMCC63501 were obtained from the College of Veterinary Medicine, Northeast Agricultural University (Harbin, China), E. coli K88, E. coli CVCC1515 and P. aeruginosa ATCC15442 were bestowed by Prof. J.H. Wang (Gene Engineering Laboratory, Feed Research Institute, Chinese Academy of Agricultural Sciences Beijing, China) and E. coli UB1005 was kindly provided by Prof. Q.S. Qi (State Key Laboratory of Microbial Technology, Shandong University, China). […] Briefly, 50 µl of approximate 0.5–1 × 10^6 colony forming units (CFU)/ml of cells were diluted in Mueller-Hinton broth and distributed to 96-well plate, 50 µl of twofold peptides were added and the plates was incubated at 37°C for 18–24 h. The MIC values were calculated as the lowest peptide concentration that prevented visible turbidity and negative control of the pure broth without microbes. The tests were performed at least three times in duplicate.

Data set [3] has as its system P. aeruginosa ATCC27853. Particulars: P. aeruginosa ATCC27853; MHB, 37°C, 18-24 h; at least three times in duplicate.
Description: as §1

Data set [4] has as its system E. coli CVCC1515. Conditions: E. coli CVCC1515; MHB, 37°C, 18-24 h; at least three times in duplicate.
Description: as §1

Data set [5] deals with S. typhimurium ATCC14028. Conditions: S. typhimurium ATCC14028; MHB, 37°C, 18-24 h; at least three times in duplicate.
Description: as §1

Data set [6] deals with E. coli UB1005. Conditions: E. coli UB1005; MHB, 37°C, 18-24 h; at least three times in duplicate.
Description: as §1

Data set [7] relates to P. aeruginosa variant 1. Conditions: P. aeruginosa variant 1, obtained by step-wise culture with ciprofloxacin hydrochloride; MHB, 37°C, 18-24 h.
Description: as §1

Data set [8] relates to E. coli K88. Particulars: MHB, 37°C, 18-24 h, at least three times in duplicate.
Description: as §1

The test system of data set [9] is S.epidermidis ATCC12228. Particulars: S.epidermidis ATCC12228; MHB, 37°C, 18-24 h; at least three times in duplicate.
Description: as §1

In data set [10] the test system is B. subtilis CMCC63501. Conditions: B. subtilis CMCC63501; MHB, 37°C, 18-24 h; at least three times in duplicate.
Description: as §1

Data set [11] deals with P. aeruginosa ATCC15442. Particulars: P. aeruginosa ATCC15442; MHB, 37°C, 18-24 h; at least three times in duplicate.
Description: as §1

The test system of data set [12] is S.aureus ATCC29213. Particulars: S.aureus ATCC29213; MHB, 37°C, 18-24 h; at least three times in duplicate.
Description: as §1

The test system of data set [13] is S.faecalis ATCC29212. Particulars: S.faecalis ATCC29212; MHB, 37°C, 18-24 h; at least three times in duplicate.
Description: as §1

For data set [14], the system named is E. coli ATCC25922. Particulars: E. coli ATCC25922; MHB, 37°C, 18-24 h; at least three times in duplicate.
Description: as §1

Usually MIC stands for the least concentration at which growth counts as inhibited. The low end stands for inhibition by little substance, the high end for a need for much substance.

In data set [1], RFRRLFRIRVRVLKKI-NH2 [R-FV-I16] came in with an MHC of 128 µM. Further, the MIC in data set [2] is 4 µM; in [3] it was 4 µM; in [4] it was 2 µM; in [5], 2 µM; in data set [6], 4 µM; in [7], 2 µM. The MIC in data set [8] came out at 2 µM; in data set [9] it was 4 µM; in [10] it was 1 µM; in [11], 2 µM; in [12] it was 2 µM; in [13], 1 µM. Further, in data set [14], the MIC is on record as 1 µM.
